The source of these data is patent publication US8609667B2, “E-type phenyl acrylic ester compounds containing substituted anilino pyrimidine group and uses thereof” (Sinochem Corporation, priority 2009, dated 2013).

Where two headings read alike, the source gives them in different places.

The subject of data set [1] is eggs of Tetranychus cinnabarinus. The data set is described as follows: Activity against eggs in greenhouse (hatching inhibition rate). Format: in vivo. The conditions noted are these: Tetranychus cinnabarinus. Here is the method:
(§1) The activity determinations of compounds of the present invention against adults, nymphs and eggs of Tetranychus cinnabarinus were carried out in greenhouse by the following procedures:
The activity determination against eggs in greenhouse: Broadbean shoots in pot with one true leaf retained were taken, ten healthy female adults of Tetranychus cinnabarinus were inoculated to the leaves, the adults were removed after 24 hrs and the eggs were counted and then sprayed. The treatment of test compounds and spaying method were the same as that of the activity determination in greenhouse against adults. Once eggs of blank control were all hatched after 5 days, unhatched eggs in each treatment were investigated and the hatching inhibition rate were calculated.

Data set [2] deals with nymphs of Tetranychus cinnabarinus. Nature of the data set: Acaricidal activity against nymphs in greenhouse (spray, mortality after 72 hrs). Format: in vivo. Here is the method: as §1
The activity determination against nymphs in greenhouse: broadbean shoots with two true leaves in pot were taken, ten healthy female adults of Tetranychus cinnabarinus were inoculated to the leaves, the adults were removed after 24 hrs and the eggs were cultivated into nymphs after 7-10 days. The nymphs were counted and then sprayed. 3 replicates were set for each treatment. And then were maintained in standard observation room. Scores were conducted and mortalities were calculated after 72 hrs.

Data set [3] relates to adults of Tetranychus cinnabarinus. Nature of the data set: Acaricidal activity against adults in greenhouse (spray on broadbean shoots, mortality after 72 hrs). Format: in vivo. The conditions noted are these: for control against adults of Tetranychus cinnabarinus: spray, 72 hrs. The procedure: as §1
The activity determination against adults in greenhouse: the compounds were weighed and dissolved in acetone to obtain mother liquid, and then the mother liquid was diluted to required concentration with placed running water containing 0.1% of Tween 80. Broadbean shoots with two true leaves were used to inoculate adults of Tetranychus cinnabarinus which were counted, spraying treatment was performed by portable sprayer (DeVilbiss Atomizer M163), 3 replicates were set for each treatment. After treatment the broadbean shoots were maintained in standard observation room. Scores were conducted and mortalities were calculated after 72 hrs.

In a further data set the test system is citrus red mite. The data set is described as follows: Field trial against citrus red mite (Guilin, China). The class given is in vivo. Here is the method:
Field Trial Against Citrus Red Mite (Guilin, China)
The trial was carried out in a 2-year-old Shatang orange orchard in Chaotian town lingchuan county guilin city, trifoliate orange trees were selected as stocks, the intervals between two plants was 1.5×2.5 m, the average height was 1.45 m and the crown width was 1.30 m. Two trees were selected in each plot, with random arrangement and 4 replications. Compound 9 (15% SC) was set at two different doses (100 mg/L and 25 mg/L), and spirodiclofen (24% SC) was set at one dose (48 mg/L). Matabi Supergreen 16 Knapsack Sprayer 16 Liter was used to spray evenly with 2 L of spaying volume for each plant. The plants were treated once on 30 Oct. 2009, at that time, adults, nymphs and eggs of citrus red mite all existed, with adults/eggs=1/1.27. During the day the plants were treated, and the weather was good with the average temperature at 23° C. The first three days after treatment were all clear days. The number of mites was investigated before treatment and on the 1st, 3rd, 10th, 15th, 20th and 30th day after treatment respectively. Two trees of each plot were investigated according to the five directions of the tree crown (east, south, west, north and central), 5 leaves in each direction were investigated to calculate the number of living mites, with 50 leaves each plot. The decline rate of mite population and corrected efficacy were calculated according to formulas below: The decline rate of mite population(%)=[(the average number of mite on each leaf before treatment−the average number of mite on each leaf after treatment)/the average number of mite on each leaf before treatment]×100. Corrected efficacy(%)=[(the decline rate of mite population in treated area−the decline rate of mite population in untreated area)/(100−the decline rate of mite population in untreated area)]×100.

The term melting point denotes the temperature of the solid-liquid transition. As for `CO/C=C(/C(=O)OC)c1ccccc1COc1nc(Nc2ccc(Cl)cc2Cl)nc2c1CCC2` [Compound 97], the melting point fell in the range of 150 to 151 °C.

Regarding `CO/C=C(/C(=O)OC)c1ccccc1COc1nc(Nc2ccc(F)c(F)c2F)nc2c1CCC2` [Compound 103], the melting point was in the range of 118 to 120 °C.

`CO/C=C(/C(=O)OC)c1ccccc1COc1nc(Nc2ccc(F)cc2F)nc2c1CCC2` [Compound 96] gave a melting point of 106 to 108 °C.

What is called inhibition is how much of the control response was suppressed. For `CO/C=C(/C(=O)OC)c1ccccc1COc1cc(C(F)(F)F)nc(Nc2ccc(Cl)cc2Cl)n1` [Compound 9], the inhibition at 0.625 µg/mL in data set [1] (0.625 mg/L, Table 8, read-out: hatching inhibition rate against eggs (%)) amounted to 20%. Moreover, the inhibition at 2.5 µg/mL is 100% in data set [1] (2.5 mg/L, Table 8, read-out: hatching inhibition rate against eggs (%)) and at least 90% in data set [1] (dose 2.5 mg/L, read-out: hatching inhibition rate against eggs of Tetranychus cinnabarinus). Further, the inhibition at 10 µg/mL in data set [1] (10 mg/L, Table 8, read-out: hatching inhibition rate against eggs (%)) stood at 100%; in data set [1] (dose 10 mg/L, read-out: hatching inhibition rate against eggs of Tetranychus cinnabarinus), 100%. For the same molecule, the “control against nymphs of Tetranychus cinnabarinus” value is “more than 95%” in data set [2] (dose 0.63 mg/L) and 100% in data set [2] (dose 2.5 mg/L). Besides, in data set [3] (Tetranychus cinnabarinus, 0.625 mg/L, Table 7, read-out: mortalities of adults of Tetranychus cinnabarinus (%)), the mortality at 0.625 µg/mL was determined as 88%. Further, in data set [3] (Tetranychus cinnabarinus, 1.25 mg/L, Table 7, read-out: mortalities of adults of Tetranychus cinnabarinus (%)), the mortality at 1.25 µg/mL was determined as 90%. Moreover, the mortality at 2.5 µg/mL in data set [3] (Tetranychus cinnabarinus, 2.5 mg/L, Table 7, read-out: mortalities of adults of Tetranychus cinnabarinus (%)) turned out to be 98%. The mortality at 5 µg/mL in data set [3] (Tetranychus cinnabarinus, 5 mg/L, Table 7, read-out: mortalities of adults of Tetranychus cinnabarinus (%)) was found to be 100%. Further, the mortality at 10 µg/mL in data set [3] (Tetranychus cinnabarinus, 10 mg/L, Table 7, read-out: mortalities of adults of Tetranychus cinnabarinus (%)) was determined as 100%. Further, in data set [3] (Tetranychus cinnabarinus, 40 mg/L, Table 7, read-out: mortalities of adults of Tetranychus cinnabarinus (%)), the mortality at 40 µg/mL is 100%. Also, the “control against adults of Tetranychus cinnabarinus” value in data set [3] (dose 5 mg/L), in data set [3] (dose 10 mg/L), in data set [3] (dose 40 mg/L) and in data set [3] (dose 100 mg/L) was 100% each time. In addition, the “Corrected efficacy (%)” value was found to be 90% in the data set with citrus red mite (25 mg/L (15% SC), the 1st day after treatment); 92% with citrus red mite (25 mg/L (15% SC), the 3rd day after treatment); 83% with citrus red mite (25 mg/L (15% SC), the 10th day after treatment); 91% in the data set with citrus red mite (25 mg/L (15% SC), the 15th day after treatment); 92% with citrus red mite (25 mg/L (15% SC), the 20th day after treatment); 91% in the data set with citrus red mite (25 mg/L (15% SC), the 30th day after treatment). The “Corrected efficacy (%)” value with citrus red mite (100 mg/L (15% SC), the 1st day after treatment) is 92%; in the data set on citrus red mite (100 mg/L (15% SC), the 3rd day after treatment), 96%; in the data set on citrus red mite (100 mg/L (15% SC), the 10th day after treatment), 96%; with citrus red mite (100 mg/L (15% SC), the 15th day after treatment), 95%; with citrus red mite (100 mg/L (15% SC), the 20th day after treatment), 97%; in the data set on citrus red mite (100 mg/L (15% SC), the 30th day after treatment), 94%.

In turn, `CO/C=C(/C(=O)OC)c1ccccc1COc1nc(Nc2cccc(Cl)c2Cl)nc2c1CCC2` [Compound 128] yielded a melting point of 132 to 134 °C.

`CO/C=C(/C(=O)OC)c1ccccc1COc1nc(Nc2ccc(Cl)c(C)c2Cl)nc2c1CCC2` [Compound 105] came in with a melting point of 150 to 151 °C.
